According to patent US5814634A, “Alkylenediamine derivative anti-ulcer drug and antibacterial drug” (Shiseido Co. Ltd., priority 1996, dated 1998):

Legend:
[1] = test system: isolated gastric fundic gland; assay: CAP: Acid Secretion Inhibition Test In Vitro ([14C]-aminopyrine uptake); format: cell-based, rabbit (male Japanese White); conditions: Oryctolagus cuniculus, 40 min; 10^-5 M compound, 10^-5 M histamine, rabbit isolated gastric fundic gland, 37° C., 40 minutes; read-out: CAP: acid secretion inhibitory rate
Outline: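 Fundic gland suspension (1.6×10^6 cells/ml in HEPES nutrient buffer) was stimulated with histamine 10^-5 M plus test compound 10^-5 M (final) and [14C]-aminopyrine 0.05 μCi/ml, then shaken 40 min at 37 °C. Pellet and supernatant were scintillation-counted to give the NaSCN-corrected specific aminopyrine accumulation ratio, in duplicate.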

Male Slc:ICR mice = test system: Male Slc:ICR mice; design: species or system mouse (male Slc:ICR); conditions: mouse, in vivo
Procedure: AT: Single Dose Toxicity Pretest
Male Slc:ICR mice (5-week-old) were used. Each group has 3 to 5 mice and each mouse was fasted, but allowed free access to water, for 4 to 5 hours from 9 a.m. in the test day. Then, 2,000 mg/10 ml/kg of the sample compound dissolved or suspended in an aqueous solution of 0.5% sodium carboxymethyl cellulose was orally administered thereto. To a control, only the vehicle was administered. […] The body weight was measured before and after the fasting as well as at the same time everyday. The dead animals were immediately subjected to autopsy and their organs were observed microscopically. Also, the living animals were sacrificed with ether or carbon dioxide one week after the administration and then their organs were observed microscopically.
The toxicity at the single dose of 2,000 mg/kg of the sample compound was expressed as being classified into 5 levels.
5: Mortality rate is 0%; no toxicity is found at all both in behavior and organs.
4: Mortality rate is 0%; while no toxicity is found in organs, slight toxicity is observed in behavior and body weight increase.
3: While there is a dead animal (though not all the animals are dead), no toxicity is found in organs.
2: Regardless of whether there is a dead animal or not, toxicity is found in organs.
1: All the animals are dead.

in vitro = conditions: rabbit, gastric mucosal cells

| Structure (SMILES) | inhibition at 10 µM [1] | AT: toxicity at single dose, 5 levels (Male Slc:ICR mice) | cytotoxicity at 4 h, 100 µM (in vitro) |
| --- | --- | --- | --- |
| CC(C)=CCOc1ccc(C(=O)NCCN2CCOCC2)cc1 [Example 28] | 88% | 3 | -39% |
| CC(C)=CCC/C(C)=C/COc1ccc(C(=O)NCCN2CCOCC2)cc1 [Example 31] | 99% | 5 | 15% |
| CC(C)=CCOc1ccc(C(=O)NCCN2CCOCC2)cc1OCC=C(C)C [Example 35] | 100% | 4 | -17% |
